Results from patent US9796733B2, “Imidazo-pyrazine derivatives useful as soluble guanylate cyclase activators” (Merck Sharp & Dohme Corp., priority 2014, dated 2017).

Columns and labels:
[1] = target: T1, sGC α1/β1 heterodimer (Homo sapiens, UniProt Q02108+Q02153); test: Cell-based sGC functional assay (CASA assay): cGMP generation in CHO-K1/sGC cells, HTRF detection; conditions: for Emax: CHO-K1, percent activation relative to standard Compound A in CHO-K1/sGC cells, read-out: % Act.; for EC50: inflection point (IP) of cGMP generation in CHO-K1/sGC cells, 4P fit, activity expressed as percentage of Compound A
T1 construct: expressed in transfected cells; host or cells: CHO-K1 (clone #7, CHO-K1/sGC)
T1 sequence (Q02108 1-690): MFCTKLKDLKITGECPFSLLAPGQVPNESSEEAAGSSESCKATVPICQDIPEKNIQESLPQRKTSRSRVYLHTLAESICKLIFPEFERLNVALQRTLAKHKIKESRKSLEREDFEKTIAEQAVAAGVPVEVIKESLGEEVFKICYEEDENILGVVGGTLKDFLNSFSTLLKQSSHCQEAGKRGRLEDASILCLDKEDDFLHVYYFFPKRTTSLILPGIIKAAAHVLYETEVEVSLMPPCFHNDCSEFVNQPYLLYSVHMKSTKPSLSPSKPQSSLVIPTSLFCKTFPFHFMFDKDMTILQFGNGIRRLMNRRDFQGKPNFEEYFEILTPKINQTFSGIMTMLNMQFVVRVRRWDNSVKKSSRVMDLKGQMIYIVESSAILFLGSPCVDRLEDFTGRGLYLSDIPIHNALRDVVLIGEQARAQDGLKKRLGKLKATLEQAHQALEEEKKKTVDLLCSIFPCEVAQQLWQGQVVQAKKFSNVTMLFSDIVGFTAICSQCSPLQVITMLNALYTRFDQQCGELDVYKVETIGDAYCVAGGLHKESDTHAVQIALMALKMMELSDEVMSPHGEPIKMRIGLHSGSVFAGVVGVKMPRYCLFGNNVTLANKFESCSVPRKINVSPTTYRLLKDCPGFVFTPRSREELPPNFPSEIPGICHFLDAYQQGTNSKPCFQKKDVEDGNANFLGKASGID
T1 sequence (Q02153 1-619): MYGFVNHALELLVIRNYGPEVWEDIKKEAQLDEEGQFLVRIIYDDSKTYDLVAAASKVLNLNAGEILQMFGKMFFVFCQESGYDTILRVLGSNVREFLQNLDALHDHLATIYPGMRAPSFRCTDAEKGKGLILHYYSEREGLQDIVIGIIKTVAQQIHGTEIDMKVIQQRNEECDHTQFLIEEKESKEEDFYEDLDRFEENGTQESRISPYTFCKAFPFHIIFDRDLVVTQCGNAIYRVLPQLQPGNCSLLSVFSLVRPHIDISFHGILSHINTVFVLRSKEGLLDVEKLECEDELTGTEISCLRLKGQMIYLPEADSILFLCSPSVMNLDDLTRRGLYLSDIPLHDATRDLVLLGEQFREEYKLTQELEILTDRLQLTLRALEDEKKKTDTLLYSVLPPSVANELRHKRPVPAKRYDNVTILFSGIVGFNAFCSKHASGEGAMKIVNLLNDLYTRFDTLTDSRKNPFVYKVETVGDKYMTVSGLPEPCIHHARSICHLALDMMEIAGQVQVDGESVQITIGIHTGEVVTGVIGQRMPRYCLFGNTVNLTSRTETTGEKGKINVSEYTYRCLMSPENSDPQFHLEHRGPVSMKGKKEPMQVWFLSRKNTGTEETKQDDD
Outline: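 cGMP was quantified by HTRF after 1 hr, 37° C exposure of thawed CHO-K1 cells expressing sGC α1/β1 to compound, with or without 1 μM DETA-NO. IBMX (0.5 mM) blocked cGMP breakdown, and DMSO was 2.5% final. Percent of standard Compound A's maximal cGMP was fitted (4P) for inflection point.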

[2] = test system: Spontaneously hypertensive rats (SHR); test: Acute efficacy in spontaneously hypertensive rats (SHR): telemetry blood pressure lowering after a single oral dose; assay type: in vivo, rat
Outline: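 Values are the maximum peak fall in systolic pressure after one oral dose (mpk), computed hourly against baseline from a vehicle dose given the day before. Rats were conscious, male, spontaneously hypertensive, with femoral-aortic telemetry recording 30 s every 10 min, 14 days post-surgery.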

SMILES	Emax [1]	EC50 [1]	Maximum peak decrease of systolic blood pressure (SBP) in SHR, Cat. ([2]; P.O. 0.3 mpk)	Maximum peak decrease of systolic blood pressure (SBP) in SHR, Cat. ([2]; P.O. 1.0 mpk)	Maximum peak decrease of systolic blood pressure (SBP) in SHR, Cat. ([2]; P.O. 3.0 mpk)
CCCc1nc(-c2nc(N)c3c(n2)NC(=O)C3(C)c2ccc(C(F)(F)F)cn2)cn2ccnc12 (stereo not drawn) [Example 132B, 4-amino-5-methyl-2-(8-propylimidazo[1,2-a]pyrazin-6-yl)-5-(5-(trifluoromethyl)pyridin-2-yl)-5H-pyrrolo[2,3-d]pyrimidin-6(7H)-one]	99%	949 nM			B (Category B=SBP in SHRs 20-40 mmHg)
CC1(c2ccc(F)cc2)C(=O)Nc2nc(-c3cn4ccnc4cn3)nc(N)c21 (stereo not drawn) [Example 134A, 4-amino-5-(4-fluorophenyl)-2-(imidazo[1,2-a]pyrazin-6-yl)-5-methyl-5H-pyrrolo[2,3-d]pyrimidin-6(7H)one]	118%	627 nM			B (Category B=SBP in SHRs 20-40 mmHg)
CC1(c2ccc(Cl)c(Cl)c2)C(=O)Nc2nc(-c3cn4ccnc4cn3)nc(N)c21 (stereo not drawn) [Example 138A, 4-amino-5-(3,4-dichlorophenyl)-2-(imidazo[1,2-a]pyrazin-6-yl)-5-methyl-5H-pyrrolo[2,3-d]pyrimidin-6(7H)-one]	151%	369 nM			B (Category B=SBP in SHRs 20-40 mmHg)
CC1(c2ccc(F)cc2F)C(=O)Nc2nc(-c3cn4ccnc4cn3)nc(N)c21 (stereo not drawn) [Example 139A, 4-amino-5-(2,4-difluorophenyl)-2-(imidazo[1,2-a]pyrazin-6-yl)-5-methyl-5H-pyrrolo[2,3-d]pyrimidin-6(7H)-one]	118%	222 nM			C (Category C=SBP in SHRs>40 mmHg)
CC1(c2ccc(Cl)c(F)c2)C(=O)Nc2nc(-c3cn4ccnc4cn3)nc(N)c21 (stereo not drawn) [Example 140B, 4-amino-5-(4-chloro-3-fluorophenyl)-2-(imidazo[1,2-a]pyrazin-6-yl)-5-methyl-5H-pyrrolo[2,3-d]pyrimidin-6(7H)-one]	107%	217 nM	B (Category B=SBP in SHRs 20-40 mmHg)		
CC1(c2ccc(F)c(F)c2)C(=O)Nc2nc(-c3cn4ccnc4cn3)nc(N)c21 (stereo not drawn) [Example 141B, 4-amino-5-(3,4-difluorophenyl)-2-(imidazo[1,2-a]pyrazin-6-yl)-5-methyl-5H-pyrrolo[2,3-d]pyrimidin-6(7H)-one]	112%	236 nM			B (Category B=SBP in SHRs 20-40 mmHg)
CC1(c2ccc(C(F)(F)F)cc2)C(=O)Nc2nc(-c3cn4ccnc4cn3)nc(N)c21 (stereo not drawn) [Example 143B, 4-amino-2-(imidazo[1,2-a]pyrazin-6-yl)-5-methyl-5-(4-(trifluoromethyl)phenyl)-5H-pyrrolo[2,3-d]pyrimidin-6(7H)-one]	78%	252 nM			B (Category B=SBP in SHRs 20-40 mmHg)
CC1(c2ccc(Cl)cc2)C(=O)Nc2nc(-c3cn4ccnc4cn3)nc(N)c21 (stereo not drawn) [Example 144A, 4-amino-5-(4-chlorophenyl)-2-(imidazo[1,2-a]pyrazin-6-yl)-5-methyl-5H-pyrrolo[2,3-d]pyrimidin-6(7H)-one]	117%	400 nM		B (Category B=SBP in SHRs 20-40 mmHg)	

These reach a lower EC50 [1]. Values come first.

Emax [1]	EC50 [1]	SMILES	Maximum peak decrease of systolic blood pressure (SBP) in SHR, Cat. ([2]; P.O. 0.3 mpk)	Maximum peak decrease of systolic blood pressure (SBP) in SHR, Cat. ([2]; P.O. 1.0 mpk)	Maximum peak decrease of systolic blood pressure (SBP) in SHR, Cat. ([2]; P.O. 3.0 mpk)
94%	57 nM	CC1(c2ccc(F)cc2)C(=O)Nc2nc(-c3cn4ccnc4c(CC4CCC4)n3)nc(N)c21 (stereo not drawn) [Example 114A, 4-amino-2-(8-(cyclobutylmethyl)imidazo [1,2-a]pyrazin-6-yl)-5-(4-fluorophenyl)-5-methyl-5H-pyrrolo[2,3-d]pyrimidin-6(7H)-one]	C (Category C=SBP in SHRs>40 mmHg)		
111%	14 nM	CC1(c2ccc(F)cn2)C(=O)Nc2nc(-c3cn4ccnc4c(CC4CCC4)n3)nc(N)c21 (stereo not drawn) [Example 115B, 4-amino-2-(8-(cyclobutylmethyl)imidazo [1,2-a]pyrazin-6-yl)-5-(5-fluoropyridin-2-yl)-5-methyl-5H-pyrrolo[2,3-d]pyrimidin-6(7H)-one]	C (Category C=SBP in SHRs>40 mmHg)		
76%	33 nM	CC1(c2ccc(Cl)cc2)C(=O)Nc2nc(-c3cn4ccnc4c(CC4CCC4)n3)nc(N)c21 (stereo not drawn) [Example 118A, 4-amino-5-(4-chlorophenyl)-2-(8-(cyclobutylmethyl)imidazo [1,2-a]pyrazin-6-yl)-5-methyl-5H-pyrrolo[2,3-d]pyrimidin-6(7H)-one]	C (Category C=SBP in SHRs>40 mmHg)		
103%	34 nM	CCCc1nc(-c2nc(N)c3c(n2)NC(=O)C3(C)c2ccc(Cl)c(F)c2)cn2ccnc12 (stereo not drawn) [Example 124B, 4-amino-5-(4-chloro-3-fluorophenyl)-5-methyl-2-(8-propylimidazo[1,2-a]pyrazin-6-yl)-5H-pyrrolo[2,3-d]pyrimidin-6(7H)-one]	B (Category B=SBP in SHRs 20-40 mmHg)		
94%	107 nM	CCCc1nc(-c2nc(N)c3c(n2)NC(=O)C3(C)c2ccc(Cl)cn2)cn2ccnc12 (stereo not drawn) [Example 129A, 4-amino-5-(5-chloropyridin-2-yl)-5-methyl-2-(8-propylimidazo[1,2-a]pyrazin-6-yl)-5H-pyrrolo[2,3-d]pyrimidin-6(7H)-one]		B (Category B=SBP in SHRs 20-40 mmHg)	
88%	178 nM	CCCc1nc(-c2nc(N)c3c(n2)NC(=O)C3(C)c2ccc(C(F)(F)F)cc2)cn2ccnc12 (stereo not drawn) [Example 131B, 4-amino-5-methyl-2-(8-propylimidazo[1,2-a]pyrazin-6-yl)-5-(4-(trifluoromethyl)phenyl)-5H-pyrrolo[2,3-d]pyrimidin-6(7H)-one]		B (Category B=SBP in SHRs 20-40 mmHg)	
148%	57 nM	CC1(c2ccc(Br)cc2)C(=O)Nc2nc(-c3cn4ccnc4cn3)nc(N)c21 (stereo not drawn) [Example 135A, 4-amino-5-(4-bromophenyl)-2-(imidazo[1,2-a]pyrazin-6-yl)-5-methyl-5H-pyrrolo[2,3-d]pyrimidin-6(7H)-one]		B (Category B=SBP in SHRs 20-40 mmHg)	
129%	77 nM	CC1(c2ccc(Cl)cc2F)C(=O)Nc2nc(-c3cn4ccnc4cn3)nc(N)c21 (stereo not drawn) [Example 136A, 4-amino-5-(4-chloro-2-fluorophenyl)-2-(imidazo[1,2-a]pyrazin-6-yl)-5-methyl-5H-pyrrolo[2,3-d]pyrimidin-6(7H)-one]		B (Category B=SBP in SHRs 20-40 mmHg)	
108%	135 nM	Nc1nc(-c2cn3ccnc3cn2)nc2c1C(c1ccc(Cl)c(F)c1)(C1CC1)C(=O)N2 (stereo not drawn) [Example 137B, 4-amino-5-(4-chloro-3-fluorophenyl)-5-cyclopropyl-2-(imidazo[1,2-a]pyrazin-6-yl)-5H-pyrrolo[2,3-d]pyrimidin-6(7H)-one]		B (Category B=SBP in SHRs 20-40 mmHg)	
120%	85 nM	CC1(c2ccc(F)cc2)C(=O)Nc2nc(-c3cn4cc(C(F)(F)F)nc4c(Cc4ccccc4)n3)nc(N)c21 (stereo not drawn) [Example 154A, 4-amino-2-(8-benzyl-2-(trifluoromethyl)imidazo[1,2-a]pyrazin-6-yl)-5-(4-fluorophenyl)-5-methyl-5H-pyrrolo[2,3-d]pyrimidin-6(7H)-one]		A (Category A=SBP in SHRs<20 mmHg)	
